PMC11770808, “Interplay between conformational dynamics and substrate binding regulates enzymatic activity: a single-molecule FRET study” (Chemical Science, 2025)
Like-named read-outs stand apart in the source and are kept apart here.

Target: T1, adenylate kinase (AK), wild-type (WT) (Escherichia coli, UniProt P69441)
T1 construct: gene adk; purified recombinant, details only in ESI
Experiment: microscale thermophoresis
Assay type: binding

T1 sequence (P69441 whole entry): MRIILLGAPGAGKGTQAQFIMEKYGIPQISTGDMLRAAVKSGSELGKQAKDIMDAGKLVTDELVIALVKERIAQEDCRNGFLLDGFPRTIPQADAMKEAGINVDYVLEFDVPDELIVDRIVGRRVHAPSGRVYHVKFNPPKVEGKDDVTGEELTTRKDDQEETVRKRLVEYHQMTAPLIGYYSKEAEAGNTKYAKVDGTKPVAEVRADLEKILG

Kd (read-out: Kd (AMP)) [µM] | Kd (read-out: WT) [µM] | SMILES
332 ± 40 | – | Nc1ncnc2c1ncn2[C@@H]1O[C@H](COP(=O)(O)O)[C@@H](O)[C@H]1O [AMP]
– | 159 ± 17 | Nc1ncnc2c1ncn2[C@@H]1O[C@H](COP(=O)(O)OP(=O)(O)OP(=O)(O)O)[C@@H](O)[C@H]1O [ATP]
